Assay results reported in patent publication US4704397A, “Pharmaceutical salts of 4-(9-acridinyl-amino) methanesulfon-m-anisidide” (Warner-Lambert Company, priority 1981, dated 1987).
Read-outs that look alike come from different tables or passages of the source.

Key:
[1] = system: mice; conditions: studies using mice; cited from earlier work
[2] = assay type: physicochemical; conditions: warming to room temperature and shaking
Source text: The salts of the present invention allow one to prepare solutions of m-AMSA without the aid of dimethylacetamide. Depending upon the salt, concentration and temperature,standing may result in certain of the solutions of salts forming gels. However, a salt need only remain in solution for a period long enough for it to be administered to a patient.
Stability of Preferred --m-AMSA Salts

Row | SMILES | activity in treating mammals [1] | return of gelled solution to fluid state ([2]; 10 mg/ml after storing at 5 °C) | return of gelled solution to fluid state ([2]; lower concentrations gelled at 5 °C)
1 | COc1cc(NS(C)(=O)=O)ccc1Nc1c2ccccc2nc2ccccc12 [m-AMSA, 4'-(9-acridinylamino)methanesulfon-m-anisidide] | high degree of activity | – | –
2 | COc1cc(NS(C)(=O)=O)ccc1Nc1c2ccccc2nc2ccccc12 [gluconate, 4'-(9-acridinylamino)methanesulfon-m-anisidide D-gluconate] | – | could not be achieved | could be returned to a fluid state
